Patent US9149038B2, “4-amino-6-(heterocyclic)picolinates and 6-amino-2-(heterocyclic)pyrimidine-4-carboxylates and their use as herbicides” (Dow AgroSciences LLC, priority 2013, dated 2015)
Like-named read-outs stand apart in the source and are kept apart here.

Legend:
[1] = system: Key Grass and Sedge Weeds as well as Grass Crops; assay: Post-Emergent Test II: postemergent herbicidal activity, visual rating after 14 d (Table 8); assay type: in vivo; conditions: post-emergence, 336 h; for pest or weed control at 35 g/ha: 35 g ai/ha; for pest or weed control at 70 g/ha: 70 g ai/ha; for pest or weed control at 140 g/ha: 140 g ai/ha
Outline: (§1)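 Plants were raised in a greenhouse for 7-21 d and treated once at the first or second true leaf stage. Compounds, dissolved in 97:3 acetone:DMSO then diluted into an aqueous acetone/isopropanol/crop oil/Triton X-155 carrier, were applied by overhead track sprayer at 187 L/ha. After 14 d with subirrigation, injury was scored visually from 0 (none) to 100 (complete kill).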

[2] = system: Key Broadleaf Weed and Crop Species; assay: Post-Emergent Test II: postemergent herbicidal activity, visual rating after 14 d (Table 7); assay type: in vivo; conditions: post-emergence, 336 h; for pest or weed control at 35 g/ha: 35 g ai/ha; for pest or weed control at 70 g/ha: 70 g ai/ha; for pest or weed control at 140 g/ha: 140 g ai/ha
Outline: as §1

[3] = barnyardgrass (Echinochloa crus-galli), read-out: Visual Growth Reduction (%) 14 Days After Application ECHCG
[4] = maize, corn (Zea mays), read-out: Visual Growth Reduction (%) 14 Days After Application ZEAMX
[5] = rice (Oryza sativa), read-out: Visual Growth Reduction (%) 14 Days After Application ORYSA
[6] = wheat, spring (Triticum aestivum), read-out: Visual Growth Reduction (%) 14 Days After Application TRZAS
[7] = yellow nutsedge (Cyperus esculentus), read-out: Visual Growth Reduction (%) 14 Days After Application CYPES
[8] = lambsquarters (Chenopodium album), read-out: Visual Growth Reduction (%) 14 Days After Application CHEAL
[9] = oilseed rape, canola (Brassica napus), read-out: Visual Growth Reduction (%) 14 Days After Application BRSNN
[10] = redroot pigweed (Amaranthus retroflexus), read-out: Visual Growth Reduction (%) 14 Days After Application AMARE
[11] = sunflower (Helianthus annuus), read-out: Visual Growth Reduction (%) 14 Days After Application HELAN
[12] = velvetleaf (Abutilon theophrasti), read-out: Visual Growth Reduction (%) 14 Days After Application ABUTH
[13] = wild poinsettia (Euphorbia heterophylla), read-out: Visual Growth Reduction (%) 14 Days After Application EPHHL
[14] = giant foxtail (Setaria faberi), read-out: Visual Growth Reduction (%) 14 Days After Application SETFA

Structure (SMILES) | pest or weed control at 35 g/ha [1, 3] [%] | pest or weed control at 70 g/ha [1, 3] [%] | pest or weed control at 140 g/ha [1, 3] [%] | pest or weed control at 35 g/ha [1, 4] [%] | pest or weed control at 70 g/ha [1, 4] [%] | pest or weed control at 140 g/ha [1, 4] [%] | pest or weed control at 35 g/ha [1, 5] [%] | pest or weed control at 70 g/ha [1, 5] [%] | pest or weed control at 140 g/ha [1, 5] [%] | pest or weed control at 35 g/ha [1, 6] [%] | pest or weed control at 70 g/ha [1, 6] [%] | pest or weed control at 140 g/ha [1, 6] [%] | pest or weed control at 35 g/ha [1, 7] [%] | pest or weed control at 70 g/ha [1, 7] [%] | pest or weed control at 140 g/ha [1, 7] [%] | pest or weed control at 35 g/ha [2, 8] [%] | pest or weed control at 70 g/ha [2, 8] [%] | pest or weed control at 140 g/ha [2, 8] [%] | pest or weed control at 35 g/ha [2, 9] [%] | pest or weed control at 70 g/ha [2, 9] [%] | further results
COC(=O)c1nc(-c2cc3c(cc2F)OC(F)(F)O3)cc(N)c1Cl [Compound 32] | 60 to 74 | 75 to 84 | 75 to 84 | 60 to 74 | 60 to 74 | 75 to 84 | 0 to 29 | 0 to 29 | 0 to 29 | 45 to 59 | 60 to 74 | 60 to 74 | 95 to 100 | 95 to 100 | 95 to 100 | 95 to 100 | 95 to 100 | 95 to 100 | 60 to 74 | 60 to 74 | pest or weed control at 140 g/ha [2, 9]: 75 to 84%; pest or weed control at 35 g/ha [2, 10]: 0 to 29%; pest or weed control at 70 g/ha [2, 10]: 45 to 59%; pest or weed control at 140 g/ha [2, 10]: 75 to 84%; pest or weed control at 35 g/ha [2, 11]: 75 to 84%; pest or weed control at 70 g/ha [2, 11]: 75 to 84%; pest or weed control at 140 g/ha [2, 11]: 75 to 84%; pest or weed control at 35 g/ha [2, 12]: 85 to 94%; pest or weed control at 70 g/ha [2, 12]: 85 to 94%; pest or weed control at 140 g/ha [2, 12]: 85 to 94%; pest or weed control at 35 g/ha [2, 13]: 0 to 29%; pest or weed control at 70 g/ha [2, 13]: 60 to 74%; pest or weed control at 140 g/ha [2, 13]: 60 to 74%
C=Cc1c(C(=O)O)nc(-c2cc3c(cc2F)OC(F)(F)O3)c(F)c1N [Compound 28] | 60 to 74 | 75 to 84 | 75 to 84 | 60 to 74 | 60 to 74 | 75 to 84 | 0 to 29 | 0 to 29 | 0 to 29 | 0 to 29 | 0 to 29 | 30 to 44 | 95 to 100 | 95 to 100 | 95 to 100 | 0 to 29 | 0 to 29 | 0 to 29 | 0 to 29 | 0 to 29 | pest or weed control at 35 g/ha [1, 14]: 0 to 29%; pest or weed control at 70 g/ha [1, 14]: 45 to 59%; pest or weed control at 140 g/ha [1, 14]: 60 to 74%; pest or weed control at 140 g/ha [2, 9]: 60 to 74%; pest or weed control at 35 g/ha [2, 10]: 0 to 29%; pest or weed control at 70 g/ha [2, 10]: 0 to 29%; pest or weed control at 140 g/ha [2, 10]: 0 to 29%; pest or weed control at 35 g/ha [2, 11]: 85 to 94%; pest or weed control at 70 g/ha [2, 11]: 85 to 94%; pest or weed control at 140 g/ha [2, 11]: 95 to 100%; pest or weed control at 35 g/ha [2, 12]: 0 to 29%; pest or weed control at 70 g/ha [2, 12]: 0 to 29%; pest or weed control at 140 g/ha [2, 12]: 60 to 74%; pest or weed control at 35 g/ha [2, 13]: 95 to 100%; pest or weed control at 70 g/ha [2, 13]: 95 to 100%; pest or weed control at 140 g/ha [2, 13]: 95 to 100%
C=Cc1c(C(=O)OC)nc(-c2cc3c(cc2F)OC(F)(F)O3)c(F)c1N [Compound 27] | 0 to 29 | 0 to 29 | 0 to 29 | 0 to 29 | 0 to 29 | 30 to 44 | 0 to 29 | 0 to 29 | 0 to 29 | 0 to 29 | 0 to 29 | 0 to 29 | 0 to 29 | 0 to 29 | 0 to 29 | 0 to 29 | 0 to 29 | 0 to 29 | 0 to 29 | 0 to 29 | pest or weed control at 35 g/ha [1, 14]: 0 to 29%; pest or weed control at 70 g/ha [1, 14]: 0 to 29%; pest or weed control at 140 g/ha [1, 14]: 0 to 29%; pest or weed control at 140 g/ha [2, 9]: 0 to 29%; pest or weed control at 35 g/ha [2, 10]: 0 to 29%; pest or weed control at 70 g/ha [2, 10]: 0 to 29%; pest or weed control at 140 g/ha [2, 10]: 0 to 29%; pest or weed control at 35 g/ha [2, 11]: 30 to 44%; pest or weed control at 70 g/ha [2, 11]: 75 to 84%; pest or weed control at 140 g/ha [2, 11]: 85 to 94%; pest or weed control at 35 g/ha [2, 12]: 0 to 29%; pest or weed control at 70 g/ha [2, 12]: 0 to 29%; pest or weed control at 140 g/ha [2, 12]: 0 to 29%; pest or weed control at 35 g/ha [2, 13]: 0 to 29%; pest or weed control at 70 g/ha [2, 13]: 0 to 29%; pest or weed control at 140 g/ha [2, 13]: 0 to 29%
